Patent publication US10000500B2 (PROMEGA CORPORATION, priority 2016, dated 2018)

Biological target: NANOLUC® Luciferase (Oplophorus gracilirostris, UniProt Q9GV45, A31E/A60N/A81I/F95D/I117V/K70R/L54V/L99Q/M102K/N193R/P142E/Q151K/Q38R/Q45L/V71I/Y165I)
Assay: Km and Vmax substrate titration with NanoLuc luciferase (Example 8)
Assay type: biochemical
Settings: NanoLuc 4 ng/ml; Renilla Glo buffer; Michaelis-Menten fit
Procedure: Each compound to be screened was diluted to a concentration of 100 uM in Renilla Glo Luciferase Assay buffer (Promega Corporation) and then further diluted to 2×serial dilution in Renilla Glo Luciferase Assay Buffer. NANOLUC® luciferase and Renilla luciferase were diluted to a concentration of 4 ng/ml in OptiMEM+0.1% FBS. 50 ul of each compound dilution was then mixed with 50 ul of each enzyme dilution and incubated for 1 minute at room temperature. Light output for each compound was measured on a GLOMAX®-Multi+ luminometer. Km and Vmax were calculated for each enzyme/substrate combination using a GraphPad Prism Michaelis-Menten non-linear fit (FIGS. 1A-ID).

Chain of NANOLUC® Luciferase (Q9GV45 28-196 with tags or gaps with the stated changes limits assumed): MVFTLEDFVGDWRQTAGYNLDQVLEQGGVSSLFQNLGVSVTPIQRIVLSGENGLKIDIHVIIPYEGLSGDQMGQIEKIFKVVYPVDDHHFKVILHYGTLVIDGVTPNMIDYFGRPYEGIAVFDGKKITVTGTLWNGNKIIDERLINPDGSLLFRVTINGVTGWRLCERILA

## O=c1c(Cc2ccco2)nc2c(Cc3ccccc3)[nH]c(-c3ccccc3)cn1-2 [Furimazine, 8-benzyl-2-(furan-2-ylmethyl)-6-phenylimidazo[1,2-a]pyrazin-3(7H)-one]
  Km: 9.37 µM
